This is an account of results in ChEMBL document CHEMBL1777753, “Discovery of indeno[1,2-c]quinoline derivatives as inhibitors of osteoclastogenesis induced by receptor activator of NF-κB ligand (RANKL)” (J Med Chem, 2011).

Data set [1] deals with RAW264.7. Description: Inhibition of RANKL-induced osteoclastogenesis in mouse RAW264.7 cells assessed as decrease in TRAP-positive multi-nucleated cells at 10 uM after 5 days. Type of data set: functional.
A short description of data set [2]: Cytotoxicity against mouse RAW264.7 cells assessed as cell survival rate at 10 uM by MTT assay. Type of data set: cell-based. As to conditions: read-out: Survival. (Formazan colour is commonly taken as a measure of viable cells.)
Data set [3] relates to RAW264.7. The data set can be described thus: Inhibition of RANKL-induced osteoclastogenesis in mouse RAW264.7 cells assessed as decrease in TRAP-positive multi-nucleated cells after 5 days. The format is functional, cell-based. As to conditions: RAW264.7, 120 h.
Data set [4] deals with RAW264.7. The data set can be described thus: Ratio of EGCG IC50 for compound IC50 for inhibition of RANKL-induced osteoclastogenesis in mouse RAW264.7 cells. The format is functional.
For data set [5], the system named is RAW264.7. The data set can be described thus: Inhibition of RANKL-induced osteoclastogenesis in mouse RAW264.7 cells. The format is functional, cell-based.
For the next data set, the system named is SAS. The data set can be described thus: Growth inhibition against human SAS cells. Type of data set: functional.
Data set [6] is described as follows: Growth inhibition against human BT-483 cells. Type of data set: functional.
Another data set concerns A549. Description: Growth inhibition against human A549 cells. Type of data set: functional.

Calls of active or inactive are those of the source. No cut-off for these calls is given here. Where only a bound is given, the exact number is not on record here.

For orientation: inhibition means the drop in the measured response relative to a control, in per cent. For orientation: IC50 means the concentration at which inhibition is half-maximal. By GI50 is commonly meant the concentration that inhibits growth by half. A higher GI50 goes with less potent growth inhibition.

For the compound `COc1ccc2c(c1)C(=O)c1c-2c(SC)nc2ccccc12`, in the data set with RAW264.7 [1], the inhibition result is “Active”. Also, the viability at 10 µM in data set [2] amounted to 86.6%. For the same compound, the IC50 in the data set on RAW264.7 [3] stood at 2.58 µM.

`O=C1c2cc(O)ccc2-c2c(O)nc3ccccc3c21`: in data set [2], the viability at 10 µM came out at 16.8%. The IC50 in the data set with RAW264.7 [3] amounted to 15.3 µM.

Turning to `COc1ccc2c(c1)C(=O)c1c-2c(O)nc2ccccc12`, the IC50 in the data set on RAW264.7 [3] is greater than 20 µM.

Turning to `O=C(O[C@@H]1Cc2c(O)cc(O)cc2O[C@@H]1c1cc(O)c(O)c(O)c1)c1cc(O)c(O)c(O)c1` [EPIGALOCATECHIN GALLATE], the IC50 with RAW264.7 [3] amounted to 29.8 µM.

As to `COc1ccc2c(c1)C(=O)c1c-2c(OC)nc2ccccc12`, the inhibition result in the data set with RAW264.7 [1] is “Active”. Besides, the viability at 10 µM in data set [2] is 100%. The IC50 in the data set on RAW264.7 [3] amounted to 2 µM. Moreover, in the data set with RAW264.7 [4], the “Ratio IC50” value stood at 15.

Take `COc1ccc2c(c1)C(=O)c1c-2c(N)nc2ccccc12`: the 50% inhibitory concentration (IC50) in the data set with RAW264.7 [3] is greater than 20 µM.

Take `CO/N=C1\c2cc(OC)ccc2-c2c(OC)nc3ccccc3c21`: the viability at 10 µM in data set [2] was found to be 62.3%. In addition, the IC50 in the data set with RAW264.7 [3] was 7.97 µM.

As to `COc1ccc2c(c1)/C(=N\O)c1c-2c(O)nc2ccccc12`, the viability at 10 µM in data set [2] was 85.2%. In addition, the IC50 with RAW264.7 [3] stood at 9.11 µM.

In the case of `C#CCOc1ccc2c(c1)C(=O)c1c-2c(OCC#C)nc2ccccc12`, the viability at 10 µM in data set [2] came to 30.9%. In addition, the IC50 in the data set with RAW264.7 [3] amounted to 9.46 µM.

On to `C=CCn1c(=O)c2c(c3ccccc31)C(=O)c1cc(OC)ccc1-2`, for which the IC50 with RAW264.7 [3] is greater than 20 µM.

For the compound `COc1ccc2c(c1)C(=O)c1c-2c(S)nc2ccccc12`, the viability at 10 µM in data set [2] amounted to 63%. In addition, the IC50 in the data set with RAW264.7 [3] turned out to be 13.8 µM.

Take `CO/N=C1\c2cc(OC)ccc2-c2cnc3ccccc3c21`: the viability at 10 µM in data set [2] was 55.4%. The IC50 in the data set on RAW264.7 [3] came out at 4.79 µM.

`Cc1ccc(-n2c(=O)n3n(c2=O)C2C(=CC3)C(C)(C)Oc3cc(O)ccc32)cc1` (configuration not stated) came in with an IC50 in the data set on RAW264.7 [5] of 6.97 µM.

For the compound `CC(C)Oc1ccc2c(=O)c(-c3ccccc3)coc2c1` [IPRIFLAVONE], the inhibition at 10 µM in the data set with RAW264.7 [1] (RAW264.7, 120 h) worked out at 31%. The viability at 10 µM in data set [2] was 102%.

For `C=CCOc1ccc2c(c1)C(=O)c1c-2c(OCC=C)nc2ccccc12`, the inhibition result with RAW264.7 [1] was “Active”. In addition, in data set [2], the viability at 10 µM was 75.1%. In the data set on RAW264.7 [3], the 50% inhibitory concentration (IC50) was 5.7 µM.

As to `CO/N=C1\c2cc(OC)ccc2-c2c(NOC)nc3ccccc3c21`, in the data set on RAW264.7 [1], the inhibition entry is “Active”. In data set [2], the viability at 10 µM came to 105%. The IC50 in the data set with RAW264.7 [3] was found to be 1.58 µM.

Regarding `CCOc1nc2ccccc2c2c1-c1ccc(OC)cc1C2=O`, the IC50 in the data set on RAW264.7 [3] is greater than 20 µM.

As for `COc1ccc2c(c1)/C(=N\O)c1c-2cnc2ccccc12`, in the data set with RAW264.7 [3], the concentration for half-maximal inhibition (IC50) was greater than 20 µM.

Turning to `COc1ccc2c(c1)C(=O)c1c-2cnc2ccccc12`, the viability at 10 µM in data set [2] is 25.3%. Also, in the data set on RAW264.7 [3], the half-maximal inhibitory concentration (IC50) is 1.43 µM. In the data set on RAW264.7 [4], the “Ratio IC50” value is recorded as 20.

On to `CNc1nc2ccccc2c2c1-c1ccc(OC)cc1C2=O`, for which, in data set [2], the viability at 10 µM was found to be 25.9%. Moreover, the IC50 with RAW264.7 [3] was 5.58 µM.

`C=CCOc1ccc2c(c1)C(=O)c1c-2c(=O)n(CC=C)c2ccccc12`: the IC50 in the data set on RAW264.7 [3] was greater than 20 µM.

Take `COc1ccc2c(c1)C(=O)c1c-2c(=O)n(C)c2ccccc12`: the viability at 10 µM in data set [2] worked out at 66.6%. Further, the IC50 in the data set with RAW264.7 [3] was 11.5 µM.

Regarding `COc1ccc2c(c1)/C(=N\OCCN1CCCC1)c1c-2c(O)nc2ccccc12`, the GI50 was 0.84 µM in the data set with SAS, 0.79 µM in data set [6] and 0.89 µM in the data set with A549.

Turning to `C#CCOc1ccc2c(c1)C(=O)c1c-2c(=O)n(CC#C)c2ccccc12`, the IC50 with RAW264.7 [3] is greater than 20 µM.

`COc1ccc2c(c1)/C(=N\O)c1c-2c(OC)nc2ccccc12`: the viability at 10 µM in data set [2] is 46.9%. For the same compound, in the data set with RAW264.7 [3], the IC50 was 8.44 µM.

Take `C=CCOc1nc2ccccc2c2c1-c1ccc(OC)cc1C2=O`: the viability at 10 µM in data set [2] was 105%. In addition, the half-maximal inhibitory concentration (IC50) in the data set on RAW264.7 [3] amounted to 15.4 µM.

With `C=CCSc1nc2ccccc2c2c1-c1ccc(OC)cc1C2=O`, the viability at 10 µM in data set [2] turned out to be 106%. Also, the IC50 with RAW264.7 [3] turned out to be 15.6 µM.
